The record followed here is US8906925B2, “Pyrido[4,3-B]indoles containing rigid moieties” (Medivation Technologies, Inc., priority 2008, dated 2014).

SMILES strings stand for the structures. Where two headings read alike, the source gives them in different places.

The target in assay [1] is T1, human recombinant histamine H2 receptor (Homo sapiens, UniProt P25021).
T1 construct: expressed in transfected cells; host or cells: Chinese hamster ovary (CHO) K1 cells
The assay can be described thus: Histamine H2 radioligand binding ([125I]Aminopotentidine). The conditions noted are these: read-out: Histamine Binding (1 μM) H2, percent inhibition of specific binding, 1 μM. In outline: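 Receptor source: human recombinant H2 in CHO-K1 cells, assayed in 50 mM phosphate pH 7.4. Competition against 0.1 nM [125I]aminopotentidine, 120 min, 25 °C; 3 μM tiotidine sets nonspecific binding, filter-bound counts give specific binding.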

In assay [2] the target is T2, human recombinant serotonin (5-Hydroxytryptamine) 5-HT2C receptor (Homo sapiens, UniProt P28335).
T2 construct: expressed in transfected cells; host or cells: Chinese hamster ovary (CHO-K1) cells
T2 sequence (P28335 33-458): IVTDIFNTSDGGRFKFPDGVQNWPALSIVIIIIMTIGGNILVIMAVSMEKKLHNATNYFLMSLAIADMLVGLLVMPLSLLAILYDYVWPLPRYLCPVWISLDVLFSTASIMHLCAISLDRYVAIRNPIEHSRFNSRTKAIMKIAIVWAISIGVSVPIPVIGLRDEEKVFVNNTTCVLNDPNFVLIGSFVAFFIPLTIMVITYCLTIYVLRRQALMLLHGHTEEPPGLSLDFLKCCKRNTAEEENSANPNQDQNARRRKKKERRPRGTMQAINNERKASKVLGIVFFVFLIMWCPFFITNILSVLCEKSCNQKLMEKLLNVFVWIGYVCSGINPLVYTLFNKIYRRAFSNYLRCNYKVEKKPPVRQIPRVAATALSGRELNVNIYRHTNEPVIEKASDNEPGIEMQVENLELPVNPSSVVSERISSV
Put plainly: Serotonin 5-HT2C radioligand binding ([3H]Mesulergine). The conditions noted are these: compound at 1 μM; read-out: Inhibition of ligand binding, Serotonin 5-HT2C (percent inhibition of specific binding). In outline:
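Compounds tested at 1 μM or lower (1% DMSO vehicle) for displacement of 1 nM [3H]Mesulergine over 60 min at 25° C. Specific binding determined by filtration counting, with 1 μM Mianserin defining non-specific binding; values are percent inhibition.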

Assay [3] has as its target T3, human recombinant serotonin (5-Hydroxytryptamine) 5-HT6 receptor (Homo sapiens, UniProt P50406).
T3 construct: expressed in transfected cells; host or cells: human HeLa cells
The assay can be described thus: Serotonin 5-HT6 radioligand binding ([3H]LSD). The conditions noted are these: compound at 1 μM; read-out: Inhibition of ligand binding, Serotonin 5-HT6 (percent inhibition of specific binding). The procedure:
Compounds of the invention were incubated with 1.5 nM [3H]Lysergic acid diethylamide (LSD) for 120 min. at 37° C. […] Receptor proteins were filtered and washed, the filters were then counted to determine [3H]LSD specifically bound. Compounds were screened at 1 μM or lower, using 1% DMSO as vehicle. Biochemical assay results are presented as the percent inhibition of specific binding in Table 10.

The target in assay [4] is T4, human recombinant serotonin (5-Hydroxytryptamine) 5-HT2A receptor (Homo sapiens, UniProt P28223).
T4 construct: expressed in transfected cells; host or cells: Chinese hamster ovary (CHO-K1) cells
Put plainly: Serotonin 5-HT2A radioligand binding ([3H]Ketanserin). The settings on record: read-out: Inhibition of ligand binding, Serotonin 5-HT2A (percent inhibition of specific binding), compound at 1 μM. The procedure: Compounds of the invention were incubated with 0.5 nM [^3H]Ketanserin for 60 min. at 25° C. Non-specific binding was estimated in the presence of 1 μM Mianserin. Receptor proteins were filtered and washed, the filters were then counted to determine [^3H]Ketanserin specifically bound.

For assay [5], the target named is human dopamine D2L receptor (Homo sapiens, UniProt P14416). The assay can be described thus: Dopamine D2L radioligand binding ([3H]Spiperone). The conditions noted are these: compound at 1 μM. From the text: Non-specific binding was estimated in the presence of […] Haloperidol. Receptor proteins were filtered and washed, the filters were then counted to determine [^3H]Spiperone specifically bound. […] Biochemical assay results are presented as the percent inhibition of specific binding in Table 9.

Assay [6] deals with human recombinant serotonin (5-Hydroxytryptamine) 5-HT7 receptor (Homo sapiens, UniProt P34969). Put plainly: Serotonin 5-HT7 radioligand binding ([3H]LSD). The conditions noted are these: compound at 1 μM; read-out: Inhibition of ligand binding, Serotonin 5-HT7 (percent inhibition of specific binding). From the text:
Receptor proteins were filtered and washed, the filters were then counted to determine [^3H]LSD specifically bound.

Another assay has as its target histamine receptor H1 (Homo sapiens, UniProt P35367). The assay can be described thus: Histamine H1 radioligand binding ([3H]Pyrilamine). The settings on record: read-out: Histamine Binding (1 μM) H1, percent inhibition of specific binding, 1 μM. The method in brief: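 Values are percent inhibition of specific [3H]pyrilamine (1.2 nM) binding with compounds at ≤1 μM (1% DMSO vehicle); 180 min incubation at 25 °C, pH 7.4 Tris buffer, on CHO-expressed human H1 receptor; 1 μM pyrilamine defined nonspecific binding, bound ligand counted after filtration.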

The mark [7] stands for this setting: percent inhibition of specific binding, read-out: Inhibition of ligand binding, Dopamine D2L.

T4 sequence (P28223 whole entry): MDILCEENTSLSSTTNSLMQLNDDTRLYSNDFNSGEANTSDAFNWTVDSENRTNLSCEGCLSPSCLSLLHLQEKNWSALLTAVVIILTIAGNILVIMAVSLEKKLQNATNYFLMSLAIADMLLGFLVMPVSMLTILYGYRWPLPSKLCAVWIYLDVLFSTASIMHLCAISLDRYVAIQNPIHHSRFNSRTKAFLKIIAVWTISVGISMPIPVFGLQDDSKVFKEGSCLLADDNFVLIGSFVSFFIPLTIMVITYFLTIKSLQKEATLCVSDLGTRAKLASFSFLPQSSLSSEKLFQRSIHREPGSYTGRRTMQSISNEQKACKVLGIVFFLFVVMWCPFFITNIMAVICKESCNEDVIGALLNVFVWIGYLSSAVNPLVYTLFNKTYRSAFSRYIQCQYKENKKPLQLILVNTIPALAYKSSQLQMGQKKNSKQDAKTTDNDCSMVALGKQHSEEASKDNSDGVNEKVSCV
Sequence of human recombinant serotonin (5-Hydroxytryptamine) 5-HT7 receptor (P34969 whole entry): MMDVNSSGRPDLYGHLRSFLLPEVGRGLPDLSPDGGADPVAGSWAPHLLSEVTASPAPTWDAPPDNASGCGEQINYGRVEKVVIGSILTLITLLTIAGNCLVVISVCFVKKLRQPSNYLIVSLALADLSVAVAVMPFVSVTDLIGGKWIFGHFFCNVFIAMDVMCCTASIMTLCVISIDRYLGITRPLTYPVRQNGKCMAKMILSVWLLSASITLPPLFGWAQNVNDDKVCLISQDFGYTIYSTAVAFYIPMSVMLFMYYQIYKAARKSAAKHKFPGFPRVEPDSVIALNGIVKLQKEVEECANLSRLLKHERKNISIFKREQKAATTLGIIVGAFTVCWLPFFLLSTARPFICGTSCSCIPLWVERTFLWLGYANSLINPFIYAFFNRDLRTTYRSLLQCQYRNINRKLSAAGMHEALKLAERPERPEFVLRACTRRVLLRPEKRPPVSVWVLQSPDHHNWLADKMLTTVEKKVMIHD
Sequence of human dopamine D2L receptor (P14416 whole entry): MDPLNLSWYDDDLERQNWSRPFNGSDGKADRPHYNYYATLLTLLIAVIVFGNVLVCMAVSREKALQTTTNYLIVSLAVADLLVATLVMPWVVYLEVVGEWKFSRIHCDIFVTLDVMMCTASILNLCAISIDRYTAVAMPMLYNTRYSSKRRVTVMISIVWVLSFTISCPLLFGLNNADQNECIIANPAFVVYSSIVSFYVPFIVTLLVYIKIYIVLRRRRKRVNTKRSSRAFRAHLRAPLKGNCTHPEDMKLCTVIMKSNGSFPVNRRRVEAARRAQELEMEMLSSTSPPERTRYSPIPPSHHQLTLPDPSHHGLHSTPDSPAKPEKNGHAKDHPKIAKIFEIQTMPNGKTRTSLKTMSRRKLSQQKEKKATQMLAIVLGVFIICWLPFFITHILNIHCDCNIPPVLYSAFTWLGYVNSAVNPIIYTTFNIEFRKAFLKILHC
T1 sequence (P25021 whole entry): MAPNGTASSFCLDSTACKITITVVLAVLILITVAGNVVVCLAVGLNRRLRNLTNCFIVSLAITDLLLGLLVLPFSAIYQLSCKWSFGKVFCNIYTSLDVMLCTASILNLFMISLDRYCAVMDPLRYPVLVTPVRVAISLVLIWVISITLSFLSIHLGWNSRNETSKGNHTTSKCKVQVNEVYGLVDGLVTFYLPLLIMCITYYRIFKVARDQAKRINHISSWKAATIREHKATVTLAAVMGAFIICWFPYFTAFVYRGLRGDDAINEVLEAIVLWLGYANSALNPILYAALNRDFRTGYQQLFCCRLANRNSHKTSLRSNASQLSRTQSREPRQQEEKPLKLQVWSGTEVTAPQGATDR
Sequence of histamine receptor H1 (P35367 whole entry): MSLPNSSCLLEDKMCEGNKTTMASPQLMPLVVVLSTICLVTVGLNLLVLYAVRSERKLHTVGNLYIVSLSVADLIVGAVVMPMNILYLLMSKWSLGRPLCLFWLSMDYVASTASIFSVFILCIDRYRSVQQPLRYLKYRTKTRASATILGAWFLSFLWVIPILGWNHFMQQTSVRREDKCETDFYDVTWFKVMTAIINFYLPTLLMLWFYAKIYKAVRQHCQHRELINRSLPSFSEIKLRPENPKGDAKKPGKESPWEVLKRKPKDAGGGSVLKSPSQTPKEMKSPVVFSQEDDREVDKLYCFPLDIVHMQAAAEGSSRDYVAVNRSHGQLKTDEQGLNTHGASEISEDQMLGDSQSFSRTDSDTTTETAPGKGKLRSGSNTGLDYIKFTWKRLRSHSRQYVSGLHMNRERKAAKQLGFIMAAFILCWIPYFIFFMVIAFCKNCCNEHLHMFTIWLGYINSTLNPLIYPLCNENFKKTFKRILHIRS
T3 sequence (P50406 whole entry): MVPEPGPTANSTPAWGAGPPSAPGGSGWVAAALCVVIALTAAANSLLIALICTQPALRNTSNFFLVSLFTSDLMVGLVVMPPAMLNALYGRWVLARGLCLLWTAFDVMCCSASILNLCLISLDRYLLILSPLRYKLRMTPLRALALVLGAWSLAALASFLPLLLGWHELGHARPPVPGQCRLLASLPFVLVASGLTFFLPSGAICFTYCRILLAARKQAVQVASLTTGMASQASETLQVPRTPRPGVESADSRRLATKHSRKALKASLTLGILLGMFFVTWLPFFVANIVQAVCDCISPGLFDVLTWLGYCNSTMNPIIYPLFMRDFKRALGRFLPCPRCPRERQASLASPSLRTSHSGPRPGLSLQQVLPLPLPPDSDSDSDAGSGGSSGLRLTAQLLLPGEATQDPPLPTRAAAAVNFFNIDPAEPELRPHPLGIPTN

One may read the inhibition as the change of the read-out against control, counted positive when it falls. Turning to `CN1CCc2c(c3ccc(Cl)cc3n2CC(C)(O)c2ccncc2)C1` (stereo not shown) [Compound 184, 1-(7-chloro-2-methyl-3,4-dihydro-1H-pyrido[4,3-b]indol-5(2H)-yl)-2-(pyridin-4-yl)propan-2-ol], the inhibition at 1 µM in assay [1] came out at 57%; in assay [2] it was 65%; in assay [3], 31%; in assay [4], 82%; in assay [5] (setting [7]), 1%; in assay [6], 48%. Moreover, on histamine receptor H1, the inhibition at 1 µM is 23%.

Take `C/C(=C\n1c2c(c3cc(Cl)ccc31)CN(C)CC2)c1cc(Cl)cc(Cl)c1` [Compound 215, (E)-8-chloro-5-(2-(3,5-dichlorophenyl)prop-1-enyl)-2-methyl-2,3,4,5-tetrahydro-1H-pyrido[4,3-b]indole]: the inhibition at 1 µM in assay [1] is 98%; in assay [2], 96%; in assay [3] it was 97%; in assay [4], 97%; in assay [5] (setting [7]), 36%; in assay [6] it was 90%. In addition, on histamine receptor H1, the inhibition at 1 µM is 89%.

`Cc1ccc2c(c1)c1c(n2CC(C)(O)c2ccc(O)cc2)CCN(C)C1` (stereo not shown) [Compound 187, 4-(1-(2,8-dimethyl-3,4-dihydro-1H-pyrido[4,3-b]indol-5(2H)-yl)-2-hydroxypropan-2-yl)phenol]: the inhibition at 1 µM in assay [1] came to 57%; in assay [2], 99%; in assay [3], 98%; in assay [4], 102%; in assay [5] (setting [7]), 35%; in assay [6], 94%. Besides, at histamine receptor H1, the inhibition at 1 µM worked out at 36%.

Regarding `COc1ccc(/C(C)=C/n2c3c(c4cc(C)ccc42)CN(C)CC3)cc1` [Compound 236, (E)-5-(2-(4-methoxyphenyl)prop-1-enyl)-2,8-dimethyl-2,3,4,5-tetrahydro-1H-pyrido[4,3-b]indole], the inhibition at 1 µM is 99% in assay [1]; 102% in assay [2]; 98% in assay [3]; 99% in assay [4]; 76% in assay [5] (setting [7]); 93% in assay [6]. In addition, on histamine receptor H1, the inhibition at 1 µM came out at 20%.

Turning to `C/C(=C\n1c2c(c3ccc(C(F)(F)F)cc31)CN(C)CC2)c1ccc(F)cc1` [Compound 229, (E)-5-(2-(4-fluorophenyl)prop-1-enyl)-2-methyl-7-(trifluoromethyl)-2,3,4,5-tetrahydro-1H-pyrido[4,3-b]indole], the inhibition at 1 µM in assay [1] is 96%; in assay [2], 100%; in assay [3], 107%; in assay [4] it was 100%; in assay [5] (setting [7]) it was 100%; in assay [6], 89%. In addition, on histamine receptor H1, the inhibition at 1 µM was 54%.

As to `CN1CCc2c(c3ccccc3n2CC(C)(O)c2ccncc2)C1` (stereo not shown) [Compound 186, 1-(2-methyl-3,4-dihydro-1H-pyrido[4,3-b]indol-5(2H)-yl)-2-(pyridin-4-yl)propan-2-ol], the inhibition at 1 µM in assay [1] came out at 22%; in assay [2], 72%; in assay [3] it was 12%; in assay [4], 74%; in assay [5] (setting [7]) it was 3%; in assay [6], 37%. Further, the inhibition at 1 µM on histamine receptor H1 amounted to 1%.

As for `CN1CCc2c(c3c(Cl)c(Cl)ccc3n2CC(C)(O)c2ccncc2)C1` (stereo not shown) [Compound 190, 1-(8,9-dichloro-2-methyl-3,4-dihydro-1H-pyrido[4,3-b]indol-5(2H)-yl)-2-(pyridin-4-yl)propan-2-ol], the inhibition at 1 µM in assay [1] is 9%; in assay [2], 52%; in assay [3], 31%; in assay [4], 71%; in assay [5] (setting [7]), -15%; in assay [6], 47%. At histamine receptor H1, the inhibition at 1 µM was -11%.

In the case of `COc1ccc2c(c1)c1c(n2/C=C(/C)c2ccncc2)CCN(C)C1` [Compound 239, (Z)-8-methoxy-2-methyl-5-(2-(pyridin-4-yl)prop-1-enyl)-2,3,4,5-tetrahydro-1H-pyrido[4,3-b]indole], the inhibition at 1 µM in assay [1] turned out to be 28%; in assay [2], 93%; in assay [3] it was 104%; in assay [4], 93%; in assay [5] (setting [7]), 39%; in assay [6], 98%. In addition, the inhibition at 1 µM at histamine receptor H1 was determined as 14%.

Regarding `CN1CCc2c(c3cc(Cl)c(Cl)cc3n2CC(C)(O)c2ccncc2)C1` (stereo not shown) [Compound 189, 1-(7,8-dichloro-2-methyl-3,4-dihydro-1H-pyrido[4,3-b]indol-5(2H)-yl)-2-(pyridin-4-yl)propan-2-ol], the inhibition at 1 µM in assay [1] amounted to 85%; in assay [2] it was 91%; in assay [3] it was 87%; in assay [4], 96%; in assay [5] (setting [7]), 2%; in assay [6], 82%. Besides, the inhibition at 1 µM at histamine receptor H1 is 77%.

Turning to `C/C(=C\n1c2c(c3cc(Cl)ccc31)CN(C)CC2)c1ccccc1Cl` [Compound 238, (E)-8-chloro-5-(2-(2-chlorophenyl)prop-1-enyl)-2-methyl-2,3,4,5-tetrahydro-1H-pyrido[4,3-b]indole], the inhibition at 1 µM in assay [1] amounted to 93%; in assay [2], 99%; in assay [3], 99%; in assay [4] it was 101%; in assay [5] (setting [7]) it was 81%; in assay [6], 98%. Further, the inhibition at 1 µM at histamine receptor H1 is 58%.

`C/C(=C/n1c2c(c3cc(Cl)ccc31)CN(C)CC2)c1ccccc1Cl` [Compound 237, (Z)-8-chloro-5-(2-(2-chlorophenyl)prop-1-enyl)-2-methyl-2,3,4,5-tetrahydro-1H-pyrido[4,3-b]indole]: the inhibition at 1 µM in assay [1] worked out at 95%; in assay [2], 98%; in assay [3], 101%; in assay [4] it was 101%; in assay [5] (setting [7]), 45%; in assay [6], 100%. The inhibition at 1 µM at histamine receptor H1 came to 88%.

Take `COc1ccc(/C(C)=C/n2c3c(c4cc(C)ccc42)CN(C)CC3)cc1F` [Compound 214, (E)-5-(2-(3-fluoro-4-methoxyphenyl)prop-1-enyl)-2,8-dimethyl-2,3,4,5-tetrahydro-1H-pyrido[4,3-b]indole]: the inhibition at 1 µM came to 100% in assay [1]; 95% in assay [2]; 94% in assay [3]; 93% in assay [4]; 83% in assay [5] (setting [7]); 97% in assay [6]. In addition, the inhibition at 1 µM at histamine receptor H1 came out at 23%.

For the compound `C=C(Cn1c2c(c3cc(OC)ccc31)CN(C)CC2)c1ccncc1` [Compound No. 356, 8-methoxy-2-methyl-5-(2-(pyridin-4-yl)allyl)-2,3,4,5-tetrahydro-1H-pyrido[4,3-b]indole], the inhibition at 1 µM in assay [1] is 17%; in assay [2], 83%; in assay [3], 90%; in assay [4] it was 81%; in assay [5] ([…] [3H]Spiperone, read-out: Inhibition of ligand binding, Dopamine D2L (percent inhibition of specific binding)), 37%; in assay [6] it was 60%. In addition, on histamine receptor H1, the inhibition at 1 µM is 70%.
